The record followed here is paper PMC12670405, “Second-Generation AURKA-Targeting PROTACs: Structural Optimization toward in Vivo Degradation in Neuroblastoma” (Journal of Medicinal Chemistry, 2025).

One experiment has as its system SJNB-1. The experiment can be described thus: IncuCyte live-cell imaging, antiproliferative effect. Conditions: Homo sapiens, 72 h, read-out: Cell GI50 72h. It is filed as cell-based. The procedure: The use of human cell lines in this study was approved by the Ethics Committee of Ghent University Hospital (EC/029-2022/sds). Human neuroblastoma cell lines NGP, IMR-32, SJNB-8, SK-N-BE(2)-C, SJNB-1, SK-N-SH and SK-N-AS, as well as benign immortalized cell lines RPE and HEK293T were either bought commercially or obtained through research laboratories. The neuroblastoma cell lines and HEK293T were cultured in RPMI 1640 medium (Gibco, #52400041) supplemented with 10% fetal bovine serum (Sigma-Aldrich, #F0804), 2 mM L-glutamine (Gibco, #11548876), and 100 IU/mL penicillin/streptomycin (Gibco, #11548876). RPE cells were cultured in DMEM-F12 (Gibco, #11594426), supplemented with 10% fetal bovine serum, 2 mM L-glutamine and 100 IU/mL penicillin/streptomycin. Screening for mycoplasma contamination occurred routinely on the cells. […]
Neuroblastoma cells were seeded in 384-well plates at different densities ranging from 1200 to 5000 cells/well and allowed to adhere overnight. […] Compound treatment was performed using the D300e Digital Dispenser (Tecan) in duplicate or triplicate and cell confluency was monitored over time using the IncuCyte Live-cell imaging system (Sartorius). […] Mean normalized confluences were calculated from 3 individual experiments. […]

A further experiment addresses T1, NanoLuc-AURKA (Homo sapiens, UniProt O14965).
T1 construct: Plasmids encoding full-length wild-type AURKA fused to Nano-Luc; host or cells: HEK293T
T1 sequence (O14965 1-403): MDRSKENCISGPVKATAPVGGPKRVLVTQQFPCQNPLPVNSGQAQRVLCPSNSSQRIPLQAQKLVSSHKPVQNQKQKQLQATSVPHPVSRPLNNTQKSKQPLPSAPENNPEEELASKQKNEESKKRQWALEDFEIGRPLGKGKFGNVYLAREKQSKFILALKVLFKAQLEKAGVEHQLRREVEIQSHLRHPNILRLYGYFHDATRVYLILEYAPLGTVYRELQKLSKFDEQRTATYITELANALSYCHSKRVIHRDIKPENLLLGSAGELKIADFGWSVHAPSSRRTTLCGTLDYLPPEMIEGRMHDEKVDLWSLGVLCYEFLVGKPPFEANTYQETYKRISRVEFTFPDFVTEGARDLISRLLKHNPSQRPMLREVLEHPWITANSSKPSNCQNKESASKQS
Kind of experiment: NanoBRET target engagement, live (intact) cells. As to conditions: intact HEK293T. The experiment is classed as cell-based. On the procedure:
The NanoBRET Target Engagement Assay (Promega) was performed according to the recommended instructions from the manufacturer. Plasmids encoding full-length wild-type AURKA fused to Nano-Luc via AURKA’s C-terminus (Promega, #NV1041) were transfected into HEK293T cells using FuGENE HD (Promega, #E2312). […] The plate was mixed at 900 rpm for 15 s, using an orbital shaker. For the permeabilized-mode, digitonin (Sigma-Aldrich, #D141) was additionally added at a final concentration of 50 μg/mL. Test compounds were subsequently administered in duplicate using the D300e digital dispenser (Tecan), followed by incubation for 2 h (37 °C, 5% CO2). To measure BRET, nanoglo substrate and extracellular nanoluc inhibitor (only in live-mode) (Promega #N2540) were added, and luminescence was measured using the GloMax Discover Microplate Reader (Promega) with a luminescence filter pair of 450 nm (BP filter, donor) and 600 nm (LP filter, acceptor). The NanoBRET ratio was calculated using the following formula: BRET ratio = 1000*[(acceptor signal/donor signal)with tracer – (acceptor signal/donor signal)no tracer]. Relative BRET ratios (%) were generated by normalizing to the negative DMSO control. The experiment was performed once with 2 replicate samples.
All dose–response curves were computed on GraphPad Prism using the Variable Slope (four parameters) equation. Absolute half-maximal degradation (DC50), growth inhibitory (GI50) and enzymatic inhibitory (IC50) concentrations, as well as inhibition constants (Ki) were derived from dose–response curves via interpolation. Statistical tests were performed on GraphPad Prism and detailed in the figure legends. Unless otherwise stated, “n” in the figure legends indicates the number of independent experiments conducted at different times.

Regarding `Cc1cc(Nc2ccc(F)c(CC3(C(=O)N4CCC(CN5CCN(c6ccc(N7CCC(=O)NC7=O)cn6)CC5)CC4)CCN(Cc4cccc(Cl)c4F)CC3)n2)n[nH]1` [SK4454], the GI50 with SJNB-1 was determined as 13.4 µM. The “NanoLuc-AURKA engagement in intact cells (in words)” value at NanoLuc-AURKA is reported as “able to bind NanoLuc-AURKA in intact cells”.
In the case of `Cc1cc(Nc2ccc(F)c(CC3(C(=O)N4CCC(F)(CN5CCN(c6ccc(N7CCC(=O)NC7=O)cn6)CC5)CC4)CCN(Cc4cccc(Cl)c4F)CC3)n2)n[nH]1` [SK5527], the GI50 in the experiment with SJNB-1 stood at 8.63 µM. In addition, the “NanoLuc-AURKA engagement in intact cells (in words)” value at NanoLuc-AURKA was “able to bind NanoLuc-AURKA in intact cells”.

As usually defined, the GI50 is the concentration at which growth is held to half of that of the control.
